From ChEMBL document CHEMBL1152103, “U-87947E, a protein quinolone antibacterial agent incorporating a bicyclo[1.1.1]pent-1-yl (BCP) subunit” (1993)
Converted amounts (≈) assume the structure as drawn.

Tests used:
Format in all cases: functional
Haemophilus influenzae = experiment: The compound was tested for its antibacterial activity against Haemophilus influenzae (10 strains)
Enterococcus faecalis = experiment: The compound was tested for its antibacterial activity against Enterococcus faecalis (10 strains)
Staphylococcus aureus [1] = experiment: The compound was tested for its antibacterial activity against Staphylococcus aureus (12 strains)
Bacteroides fragilis = experiment: The compound was tested for its antibacterial activity against Bacteroides fragilis (12 strains)
Streptococcus pneumoniae = experiment: The compound was tested for its antibacterial activity against Streptococcus pneumoniae (10 strains), expressed as MIC90
Pseudomonas aeruginosa = experiment: The compound was tested for its antibacterial activity against Pseudomonas aeruginosa (20 strains)
Staphylococcus aureus [2] = experiment: The compound was tested for its antibacterial activity against Staphylococcus aureus, ciprofloxacin resistant (14 strains)
Escherichia coli = experiment: The compound was tested for its antibacterial activity against Escherichia coli (21 strains)
Streptococcus pyogenes = experiment: The compound was tested for its antibacterial activity against Streptococcus pyogenes (10 strains)

Row | SMILES | MIC90 (Haemophilus influenzae) | MIC90 (Enterococcus faecalis) | MIC90 (Staphylococcus aureus [1]) | MIC90 (Bacteroides fragilis) | MIC90 (Streptococcus pneumoniae) | MIC90 (Pseudomonas aeruginosa) | MIC90 (Staphylococcus aureus [2]) | MIC90 (Escherichia coli) | MIC90 (Streptococcus pyogenes)
1 | CS(=O)(=O)O.C[C@H]1CN(c2c(F)cc3c(=O)c(C(=O)O)cn(C45CC(C4)C5)c3c2F)C[C@H]1CN | 0.06 mg/L | 0.25 mg/L | 0.125 mg/L | 1 mg/L | 0.125 mg/L | 8 mg/L | 0.5 mg/L | 0.125 mg/L | 0.125 mg/L
2 | O=C(O)c1cn(C2CC2)c2cc(N3CCNCC3)c(F)cc2c1=O [CIPROFLOXACIN] | 0.015 mg/L (≈ 0.0453 µM) | 2 mg/L (≈ 6.04 µM) | 1 mg/L (≈ 3.02 µM) | 8 mg/L (≈ 24.1 µM) | 1 mg/L (≈ 3.02 µM) | 2 mg/L (≈ 6.04 µM) | > 16 mg/L | 0.03 mg/L (≈ 0.0905 µM) | 0.5 mg/L (≈ 1.51 µM)
